This passage reports EC50 results from patent US7582664B2, “Acylaminothiazole derivatives, preparation method thereof and use of same in therapeutics” (Sanofi-Aventis, priority 2004, dated 2009).

This assay deals with T1, gamma-secretase (Homo sapiens, UniProt P49768, M146L).
T1 construct: expressed in transfected cells; host or cells: CHO-K1 clone 30-12, co-expressing CT100 of APP and PS1 M146L
Description: β-amyloid cellular test: inhibition of production of β-amyloid (β-A4) peptide, ELISA of cell supernatants. Format: cell-based. The settings on record: line CHO-K1 co-expressing the CT100 of APP and PS1 M146L clone 30-12; incubated 24-25 hours; secreted amyloid peptide by ELISA; read-out: EC50 (50% effective concentration), inhibition of production of the β-amyloid (β-A4) peptide. The source says: For the β-amyloid cellular test, the line CHO-K1 co-expressing the CT100 of APP and PS1 M146L clone 30-12 is used. The line targets the inhibition of gamma-secretase. […]
The amount of bound peptide is detected indirectly in the presence of a competitor corresponding to the truncated peptide, the biotin-coupled peptide 1-28, which is then detected with alkaline phosphatase-coupled streptavidin. The substrate, p-nitrophenyl phosphate (pNPP FAST p-Nitrophenyl Phosphate, Sigma N2770) gives a yellow soluble reaction product that can be read at 405 nm. […] After incubation for 30 minutes at room temperature, the reaction is quenched by adding 100 μl per well of 0.1M EDTA and the reading is taken at 405 nm.
(In general: In an ELISA, binding on a coated surface is turned into a signal by an enzyme label.)

As for `CCC[C@H](NC(=O)Cc1cc(F)cc(F)c1)C(=O)Nc1nc(C(=O)OC)c(-c2ccccc2Oc2ccc(F)cc2)s1` [Compound 13, Methyl 2-{2-(S)-[2-(3,5-difluorophenyl)acetylamino]-pentanoyl}amino-5-[2-(4-fluorophenoxy)phenyl]thiazole-4-carboxylate], the EC50 stood at 6 nM.
